Target: T1, TYK2 (Homo sapiens, UniProt P29597)
Test: TYK2 degradation MSD assay in human PBMC cells
Type: cell-based
Design: endogenous in cells; host or cells: human PBMC
Details: 4 to 24 hours incubation, read-out: TYK2 MSD DC50 rating in human PBMC
In short: (§1)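 Compound-driven TYK2 loss is measured with a Meso Scale Discovery sandwich assay on whole-cell lysates. Cells are incubated 4 to 24 hours at 37° C with nine 1:3-diluted doses topping at 1 to 10 μM, and DC50 values derive from four-parameter curve fitting.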

T1 sequence (P29597 whole entry): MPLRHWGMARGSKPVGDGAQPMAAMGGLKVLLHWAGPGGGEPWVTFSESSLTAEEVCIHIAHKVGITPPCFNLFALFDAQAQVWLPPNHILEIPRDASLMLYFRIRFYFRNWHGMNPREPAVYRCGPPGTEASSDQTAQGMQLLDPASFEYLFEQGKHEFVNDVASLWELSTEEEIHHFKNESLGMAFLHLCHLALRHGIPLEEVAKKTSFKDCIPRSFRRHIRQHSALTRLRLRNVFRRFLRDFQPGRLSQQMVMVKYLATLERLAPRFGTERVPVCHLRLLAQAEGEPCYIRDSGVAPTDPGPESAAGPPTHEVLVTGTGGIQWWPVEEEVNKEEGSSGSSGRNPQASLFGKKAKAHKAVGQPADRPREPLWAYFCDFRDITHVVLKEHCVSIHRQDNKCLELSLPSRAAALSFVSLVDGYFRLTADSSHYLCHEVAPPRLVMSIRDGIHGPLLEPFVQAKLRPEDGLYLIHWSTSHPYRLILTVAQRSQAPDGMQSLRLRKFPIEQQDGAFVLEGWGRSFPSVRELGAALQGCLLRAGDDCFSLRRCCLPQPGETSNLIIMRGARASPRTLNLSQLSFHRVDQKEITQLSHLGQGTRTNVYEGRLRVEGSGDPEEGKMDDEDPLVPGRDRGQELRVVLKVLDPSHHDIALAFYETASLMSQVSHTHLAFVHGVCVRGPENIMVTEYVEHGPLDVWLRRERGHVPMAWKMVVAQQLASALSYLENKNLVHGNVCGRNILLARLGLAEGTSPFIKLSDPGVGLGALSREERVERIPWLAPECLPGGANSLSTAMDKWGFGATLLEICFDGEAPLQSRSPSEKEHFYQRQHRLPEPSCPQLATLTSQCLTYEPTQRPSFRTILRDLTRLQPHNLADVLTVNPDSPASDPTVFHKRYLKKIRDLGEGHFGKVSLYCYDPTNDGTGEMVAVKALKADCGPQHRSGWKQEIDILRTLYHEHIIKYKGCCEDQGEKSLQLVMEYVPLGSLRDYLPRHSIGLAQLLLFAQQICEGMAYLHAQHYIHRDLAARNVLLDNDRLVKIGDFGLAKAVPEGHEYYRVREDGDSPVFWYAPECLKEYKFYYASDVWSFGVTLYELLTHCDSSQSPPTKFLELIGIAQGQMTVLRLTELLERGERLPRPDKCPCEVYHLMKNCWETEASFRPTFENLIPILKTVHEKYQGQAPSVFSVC

| SMILES | DC50 |
| --- | --- |
| CNc1cc(Nc2ccccc2C(=O)NCCCCCCc2ccc3c(c2)n(C)c(=O)n3C2CCC(=O)NC2=O)nn2c(C(=O)N[C@@H]3C[C@@H]3F)cnc12 (stereo partly drawn) [Example K255] | < 0.001 µM |
| CNc1cc(Nc2ccccc2C(=O)NCCCCCCCCc2ccc3c(c2)n(C)c(=O)n3C2CCC(=O)NC2=O)nn2c(C(=O)N[C@@H]3C[C@@H]3F)cnc12 (stereo partly drawn) [Example K256] | < 0.001 µM |
| CNc1cc(Nc2ccccc2C(=O)NCCCCCCc2cccc3c2n(C)c(=O)n3C2CCC(=O)NC2=O)nn2c(C(=O)N[C@@H]3C[C@@H]3F)cnc12 (stereo partly drawn) [Example K257] | 0.001 to 0.01 µM |
| CNc1cc(Nc2ccccc2C(=O)NCCCCCCCCc2cccc3c2n(C)c(=O)n3C2CCC(=O)NC2=O)nn2c(C(=O)N[C@@H]3C[C@@H]3F)cnc12 (stereo partly drawn) [Example K258] | < 0.001 µM |
| CNc1cc(Nc2cccn(-c3ccc(C(=O)NCCCCc4cccc5c4n(C)c(=O)n5C4CCC(=O)NC4=O)cn3)c2=O)nn2c(C(=O)N[C@@H]3C[C@@H]3F)cnc12 (stereo partly drawn) [Example K259] | > 0.1 µM |
| CNc1cc(Nc2cccn(-c3ccc(C(=O)NCCCCCCCc4ccc5c(c4)n(C)c(=O)n5C4CCC(=O)NC4=O)cn3)c2=O)nn2c(C(=O)N[C@@H]3C[C@@H]3F)cnc12 (stereo partly drawn) [Example K260] | < 0.001 µM |
| CNc1cc(Nc2cccn(-c3ccc(C(=O)NCCCCCCCCCCc4ccc5c(c4)n(C)c(=O)n5C4CCC(=O)NC4=O)cn3)c2=O)nn2c(C(=O)N[C@@H]3C[C@@H]3F)cnc12 (stereo partly drawn) [Example K261] | < 0.001 µM |
| CNc1cc(Nc2cccn(-c3ccc(C(=O)NCCOCCOCCc4ccc5c(c4)n(C)c(=O)n5C4CCC(=O)NC4=O)cn3)c2=O)nn2c(C(=O)N[C@@H]3C[C@@H]3F)cnc12 (stereo partly drawn) [Example K262] | 0.001 to 0.01 µM |
| CNc1cc(Nc2cccn(-c3ccc(C(=O)NCCOCCOCCOCCOCCc4ccc5c(c4)n(C)c(=O)n5C4CCC(=O)NC4=O)cn3)c2=O)nn2c(C(=O)N[C@@H]3C[C@@H]3F)cnc12 (stereo partly drawn) [Example K263] | 0.001 to 0.01 µM |
| CNc1cc(Nc2cccn(-c3ccc(C(=O)NCCCCc4ccc5c(c4)n(C)c(=O)n5C4CCC(=O)NC4=O)cn3)c2=O)nn2c(C(=O)N[C@@H]3C[C@@H]3F)cnc12 (stereo partly drawn) [Example K264] | > 0.1 µM |
| CNc1cc(Nc2cccn(-c3ccc(C(=O)NCCCCCCCc4cccc5c4n(C)c(=O)n5C4CCC(=O)NC4=O)cn3)c2=O)nn2c(C(=O)N[C@@H]3C[C@@H]3F)cnc12 (stereo partly drawn) [Example K265] | < 0.001 µM |
| CNc1cc(Nc2cccn(-c3ccc(C(=O)NCCCCCCCCCc4cccc5c4n(C)c(=O)n5C4CCC(=O)NC4=O)cn3)c2=O)nn2c(C(=O)N[C@@H]3C[C@@H]3F)cnc12 (stereo partly drawn) [Example K266] | < 0.001 µM |
| CNc1cc(Nc2cccn(C3CCN(C(=O)COCCOCCc4ccc5c(c4)n(C)c(=O)n5C4CCC(=O)NC4=O)CC3)c2=O)nn2c(C(=O)N[C@@H]3C[C@@H]3F)cnc12 (stereo partly drawn) [Example K275] | > 0.1 µM |
| CNc1cc(Nc2cccn(C3CCN(C(=O)COCCOCCOCCOCCc4ccc5c(c4)n(C)c(=O)n5C4CCC(=O)NC4=O)CC3)c2=O)nn2c(C(=O)N[C@@H]3C[C@@H]3F)cnc12 (stereo partly drawn) [Example K276] | 0.01 to 0.1 µM |
| CNc1cc(Nc2cccn(C3CCN(C(=O)NCCCCc4ccc5c(c4)n(C)c(=O)n5C4CCC(=O)NC4=O)CC3)c2=O)nn2c(C(=O)N[C@@H]3C[C@@H]3F)cnc12 (stereo partly drawn) [Example K277] | 0.001 to 0.01 µM |
| CNc1cc(Nc2cccn(C3CCN(C(=O)NCCCCc4cccc5c4n(C)c(=O)n5C4CCC(=O)NC4=O)CC3)c2=O)nn2c(C(=O)N[C@@H]3C[C@@H]3F)cnc12 (stereo partly drawn) [Example K278] | 0.001 to 0.01 µM |

Target: T1, TYK2
Test: TYK2 degradation MSD assay in OCI-LY10 cells
Type: cell-based
Design: endogenous in cells; host or cells: EBV-B cells
Details: 4 to 24 hours incubation, read-out: TYK2 MSD DC50 rating in OCI-LY10
In short: as §1

| SMILES | DC50 |
| --- | --- |
| CNc1cc(Nc2ccccc2C(=O)NCCCCCCc2ccc3c(c2)n(C)c(=O)n3C2CCC(=O)NC2=O)nn2c(C(=O)N[C@@H]3C[C@@H]3F)cnc12 (stereo partly drawn) [Example K255] | > 0.1 µM |
| CNc1cc(Nc2ccccc2C(=O)NCCCCCCCCc2ccc3c(c2)n(C)c(=O)n3C2CCC(=O)NC2=O)nn2c(C(=O)N[C@@H]3C[C@@H]3F)cnc12 (stereo partly drawn) [Example K256] | > 0.1 µM |
| CNc1cc(Nc2ccccc2C(=O)NCCCCCCc2cccc3c2n(C)c(=O)n3C2CCC(=O)NC2=O)nn2c(C(=O)N[C@@H]3C[C@@H]3F)cnc12 (stereo partly drawn) [Example K257] | 0.01 to 0.1 µM |
| CNc1cc(Nc2ccccc2C(=O)NCCCCCCCCc2cccc3c2n(C)c(=O)n3C2CCC(=O)NC2=O)nn2c(C(=O)N[C@@H]3C[C@@H]3F)cnc12 (stereo partly drawn) [Example K258] | > 0.1 µM |
| CNc1cc(Nc2cccn(-c3ccc(C(=O)NCCCCc4cccc5c4n(C)c(=O)n5C4CCC(=O)NC4=O)cn3)c2=O)nn2c(C(=O)N[C@@H]3C[C@@H]3F)cnc12 (stereo partly drawn) [Example K259] | > 0.1 µM |
| CNc1cc(Nc2cccn(-c3ccc(C(=O)NCCCCCCCc4ccc5c(c4)n(C)c(=O)n5C4CCC(=O)NC4=O)cn3)c2=O)nn2c(C(=O)N[C@@H]3C[C@@H]3F)cnc12 (stereo partly drawn) [Example K260] | > 0.1 µM |
| CNc1cc(Nc2cccn(-c3ccc(C(=O)NCCCCCCCCCCc4ccc5c(c4)n(C)c(=O)n5C4CCC(=O)NC4=O)cn3)c2=O)nn2c(C(=O)N[C@@H]3C[C@@H]3F)cnc12 (stereo partly drawn) [Example K261] | > 0.1 µM |
| CNc1cc(Nc2cccn(-c3ccc(C(=O)NCCOCCOCCc4ccc5c(c4)n(C)c(=O)n5C4CCC(=O)NC4=O)cn3)c2=O)nn2c(C(=O)N[C@@H]3C[C@@H]3F)cnc12 (stereo partly drawn) [Example K262] | > 0.1 µM |
| CNc1cc(Nc2cccn(-c3ccc(C(=O)NCCOCCOCCOCCOCCc4ccc5c(c4)n(C)c(=O)n5C4CCC(=O)NC4=O)cn3)c2=O)nn2c(C(=O)N[C@@H]3C[C@@H]3F)cnc12 (stereo partly drawn) [Example K263] | > 0.1 µM |
| CNc1cc(Nc2cccn(-c3ccc(C(=O)NCCCCc4ccc5c(c4)n(C)c(=O)n5C4CCC(=O)NC4=O)cn3)c2=O)nn2c(C(=O)N[C@@H]3C[C@@H]3F)cnc12 (stereo partly drawn) [Example K264] | > 0.1 µM |
| CNc1cc(Nc2cccn(-c3ccc(C(=O)NCCCCCCCc4cccc5c4n(C)c(=O)n5C4CCC(=O)NC4=O)cn3)c2=O)nn2c(C(=O)N[C@@H]3C[C@@H]3F)cnc12 (stereo partly drawn) [Example K265] | > 0.1 µM |
| CNc1cc(Nc2cccn(-c3ccc(C(=O)NCCCCCCCCCc4cccc5c4n(C)c(=O)n5C4CCC(=O)NC4=O)cn3)c2=O)nn2c(C(=O)N[C@@H]3C[C@@H]3F)cnc12 (stereo partly drawn) [Example K266] | > 0.1 µM |
| CNc1cc(Nc2cccn(C3CCN(C(=O)COCCOCCc4ccc5c(c4)n(C)c(=O)n5C4CCC(=O)NC4=O)CC3)c2=O)nn2c(C(=O)N[C@@H]3C[C@@H]3F)cnc12 (stereo partly drawn) [Example K275] | > 0.1 µM |
| CNc1cc(Nc2cccn(C3CCN(C(=O)COCCOCCOCCOCCc4ccc5c(c4)n(C)c(=O)n5C4CCC(=O)NC4=O)CC3)c2=O)nn2c(C(=O)N[C@@H]3C[C@@H]3F)cnc12 (stereo partly drawn) [Example K276] | > 0.1 µM |
| CNc1cc(Nc2cccn(C3CCN(C(=O)NCCCCc4ccc5c(c4)n(C)c(=O)n5C4CCC(=O)NC4=O)CC3)c2=O)nn2c(C(=O)N[C@@H]3C[C@@H]3F)cnc12 (stereo partly drawn) [Example K277] | > 0.1 µM |
| CNc1cc(Nc2cccn(C3CCN(C(=O)NCCCCc4cccc5c4n(C)c(=O)n5C4CCC(=O)NC4=O)CC3)c2=O)nn2c(C(=O)N[C@@H]3C[C@@H]3F)cnc12 (stereo partly drawn) [Example K278] | > 0.1 µM |

Target: T1, TYK2
Test: TYK2 degradation MSD assay in EBV-B cells
Type: cell-based
Design: endogenous in cells; host or cells: EBV-B cells
Details: 4 to 24 hours incubation, read-out: TYK2 MSD DC50 rating in EBV-B
In short: as §1

| SMILES | DC50 |
| --- | --- |
| CNc1cc(Nc2ccccc2C(=O)NCCCCCCc2ccc3c(c2)n(C)c(=O)n3C2CCC(=O)NC2=O)nn2c(C(=O)N[C@@H]3C[C@@H]3F)cnc12 (stereo partly drawn) [Example K255] | > 0.1 µM |
| CNc1cc(Nc2ccccc2C(=O)NCCCCCCCCc2ccc3c(c2)n(C)c(=O)n3C2CCC(=O)NC2=O)nn2c(C(=O)N[C@@H]3C[C@@H]3F)cnc12 (stereo partly drawn) [Example K256] | > 0.1 µM |
| CNc1cc(Nc2ccccc2C(=O)NCCCCCCc2cccc3c2n(C)c(=O)n3C2CCC(=O)NC2=O)nn2c(C(=O)N[C@@H]3C[C@@H]3F)cnc12 (stereo partly drawn) [Example K257] | > 0.1 µM |
| CNc1cc(Nc2ccccc2C(=O)NCCCCCCCCc2cccc3c2n(C)c(=O)n3C2CCC(=O)NC2=O)nn2c(C(=O)N[C@@H]3C[C@@H]3F)cnc12 (stereo partly drawn) [Example K258] | > 0.1 µM |
| CNc1cc(Nc2cccn(-c3ccc(C(=O)NCCCCc4cccc5c4n(C)c(=O)n5C4CCC(=O)NC4=O)cn3)c2=O)nn2c(C(=O)N[C@@H]3C[C@@H]3F)cnc12 (stereo partly drawn) [Example K259] | > 0.1 µM |
| CNc1cc(Nc2cccn(-c3ccc(C(=O)NCCCCCCCc4ccc5c(c4)n(C)c(=O)n5C4CCC(=O)NC4=O)cn3)c2=O)nn2c(C(=O)N[C@@H]3C[C@@H]3F)cnc12 (stereo partly drawn) [Example K260] | > 0.1 µM |
| CNc1cc(Nc2cccn(-c3ccc(C(=O)NCCCCCCCCCCc4ccc5c(c4)n(C)c(=O)n5C4CCC(=O)NC4=O)cn3)c2=O)nn2c(C(=O)N[C@@H]3C[C@@H]3F)cnc12 (stereo partly drawn) [Example K261] | 0.001 to 0.01 µM |
| CNc1cc(Nc2cccn(-c3ccc(C(=O)NCCOCCOCCc4ccc5c(c4)n(C)c(=O)n5C4CCC(=O)NC4=O)cn3)c2=O)nn2c(C(=O)N[C@@H]3C[C@@H]3F)cnc12 (stereo partly drawn) [Example K262] | > 0.1 µM |
| CNc1cc(Nc2cccn(-c3ccc(C(=O)NCCOCCOCCOCCOCCc4ccc5c(c4)n(C)c(=O)n5C4CCC(=O)NC4=O)cn3)c2=O)nn2c(C(=O)N[C@@H]3C[C@@H]3F)cnc12 (stereo partly drawn) [Example K263] | > 0.1 µM |
| CNc1cc(Nc2cccn(-c3ccc(C(=O)NCCCCc4ccc5c(c4)n(C)c(=O)n5C4CCC(=O)NC4=O)cn3)c2=O)nn2c(C(=O)N[C@@H]3C[C@@H]3F)cnc12 (stereo partly drawn) [Example K264] | > 0.1 µM |
| CNc1cc(Nc2cccn(-c3ccc(C(=O)NCCCCCCCc4cccc5c4n(C)c(=O)n5C4CCC(=O)NC4=O)cn3)c2=O)nn2c(C(=O)N[C@@H]3C[C@@H]3F)cnc12 (stereo partly drawn) [Example K265] | > 0.1 µM |
| CNc1cc(Nc2cccn(-c3ccc(C(=O)NCCCCCCCCCc4cccc5c4n(C)c(=O)n5C4CCC(=O)NC4=O)cn3)c2=O)nn2c(C(=O)N[C@@H]3C[C@@H]3F)cnc12 (stereo partly drawn) [Example K266] | > 0.1 µM |
| CNc1cc(Nc2cccn(C3CCN(C(=O)COCCOCCc4ccc5c(c4)n(C)c(=O)n5C4CCC(=O)NC4=O)CC3)c2=O)nn2c(C(=O)N[C@@H]3C[C@@H]3F)cnc12 (stereo partly drawn) [Example K275] | > 0.1 µM |
| CNc1cc(Nc2cccn(C3CCN(C(=O)COCCOCCOCCOCCc4ccc5c(c4)n(C)c(=O)n5C4CCC(=O)NC4=O)CC3)c2=O)nn2c(C(=O)N[C@@H]3C[C@@H]3F)cnc12 (stereo partly drawn) [Example K276] | > 0.1 µM |
| CNc1cc(Nc2cccn(C3CCN(C(=O)NCCCCc4ccc5c(c4)n(C)c(=O)n5C4CCC(=O)NC4=O)CC3)c2=O)nn2c(C(=O)N[C@@H]3C[C@@H]3F)cnc12 (stereo partly drawn) [Example K277] | > 0.1 µM |
| CNc1cc(Nc2cccn(C3CCN(C(=O)NCCCCc4cccc5c4n(C)c(=O)n5C4CCC(=O)NC4=O)CC3)c2=O)nn2c(C(=O)N[C@@H]3C[C@@H]3F)cnc12 (stereo partly drawn) [Example K278] | > 0.1 µM |

Source: patent publication US20250051338A1, “TYK2 DEGRADERS AND USES THEREOF” (Kymera Therapeutics, Inc., priority 2021, published 2025)
